Each structure is given as a SMILES string.

The term EC50 denotes the concentration at which the effect is half-maximal.

For the assay, the target named is Glutamate NMDA receptor; GRIN1/GRIN2A (Homo sapiens, UniProt Q05586+Q12879). Nature of the assay: TBD: TBD. It is filed as protein-complex assay.
Sequence of Glutamate NMDA receptor; GRIN1/GRIN2A (Q12879 whole entry, other chains not shown): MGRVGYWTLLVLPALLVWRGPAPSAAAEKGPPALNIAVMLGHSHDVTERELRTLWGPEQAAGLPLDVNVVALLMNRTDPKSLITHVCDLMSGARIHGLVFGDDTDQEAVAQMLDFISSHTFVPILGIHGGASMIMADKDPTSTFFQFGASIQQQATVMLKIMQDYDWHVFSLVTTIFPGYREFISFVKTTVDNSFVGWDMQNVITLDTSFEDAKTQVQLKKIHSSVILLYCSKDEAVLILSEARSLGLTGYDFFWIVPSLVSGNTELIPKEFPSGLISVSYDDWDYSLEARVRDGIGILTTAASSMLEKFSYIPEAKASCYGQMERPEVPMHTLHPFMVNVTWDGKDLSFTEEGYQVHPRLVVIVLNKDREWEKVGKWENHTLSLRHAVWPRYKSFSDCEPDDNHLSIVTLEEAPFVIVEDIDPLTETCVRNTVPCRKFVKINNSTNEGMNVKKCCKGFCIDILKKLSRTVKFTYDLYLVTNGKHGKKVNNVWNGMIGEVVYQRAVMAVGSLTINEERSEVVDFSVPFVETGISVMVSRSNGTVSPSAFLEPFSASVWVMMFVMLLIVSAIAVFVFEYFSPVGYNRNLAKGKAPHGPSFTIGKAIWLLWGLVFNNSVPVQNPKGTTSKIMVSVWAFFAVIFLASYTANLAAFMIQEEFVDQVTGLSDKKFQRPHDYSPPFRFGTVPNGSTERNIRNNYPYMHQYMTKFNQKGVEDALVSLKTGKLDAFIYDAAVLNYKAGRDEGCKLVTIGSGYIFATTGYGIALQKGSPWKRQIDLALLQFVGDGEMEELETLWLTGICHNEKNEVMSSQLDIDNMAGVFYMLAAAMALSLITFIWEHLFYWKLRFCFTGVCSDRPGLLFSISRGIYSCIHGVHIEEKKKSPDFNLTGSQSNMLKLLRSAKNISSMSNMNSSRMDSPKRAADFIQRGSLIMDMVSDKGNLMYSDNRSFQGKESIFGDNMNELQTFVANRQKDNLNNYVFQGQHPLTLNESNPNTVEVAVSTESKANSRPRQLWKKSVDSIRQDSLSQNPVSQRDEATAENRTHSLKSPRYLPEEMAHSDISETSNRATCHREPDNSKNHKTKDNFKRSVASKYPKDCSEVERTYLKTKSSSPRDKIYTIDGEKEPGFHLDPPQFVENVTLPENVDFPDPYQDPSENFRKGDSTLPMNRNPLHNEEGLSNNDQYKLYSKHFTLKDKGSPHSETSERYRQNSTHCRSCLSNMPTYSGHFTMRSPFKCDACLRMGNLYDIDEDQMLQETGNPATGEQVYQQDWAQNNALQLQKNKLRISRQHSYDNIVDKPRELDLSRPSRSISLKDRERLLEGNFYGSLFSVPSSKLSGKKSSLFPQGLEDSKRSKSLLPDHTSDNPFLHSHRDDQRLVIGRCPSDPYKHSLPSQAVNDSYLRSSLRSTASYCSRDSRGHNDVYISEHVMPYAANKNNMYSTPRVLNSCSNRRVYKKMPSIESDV

Take `CCN(Cc1cc(=O)n2c(OC)cccc2n1)c1ccc(F)cc1`: a half-maximal response (EC50) required 4.4 µM.

Source of the values: ChEMBL document CHEMBL5726897, “Pyridopyrimidinones and methods of use thereof” (2019).
